Laboratory results reported in US6525057B2, “Sustained release ranolazine formulations” (CV Therapeutics, Inc., priority 1998, dated 2003).
Read-outs that look alike come from different tables or passages of the source.

Assays:
[1] = tested on: patients with chronic stable angina pectoris; assay: Example 4: safety, hemodynamics and tolerability; format: in vivo, human
Procedure: After each 1 week period, patients returned to the exercise laboratory in the morning, at least 1 hour after a light breakfast, for an ETT. This was designated the trough ETT; the trough ETTs were performed at the same time of day for each patient. After completing the trough ETT, the patient received the next scheduled blinded medication dose from the blister pack used that week. Another ETT was performed 1 hour after the administered dose. This was designated the peak ETT. Blood samples were obtained at trough (approximately 8 hours after dosing) and at peak (1 hour after dosing). Other standard laboratory tests were monitored regularly throughout the study.
Blood pressure (by cuff) and heart rate were monitored before all ETTs, during the ETT, during the last minute of each stage of the test, at onset angina, at the point of maximum exercise, and during recovery (every minute for 4 minutes, then every 5 minutes until values returned to baseline). Heart rates also was monitored continuously and standard 12-lead ECG recordings were done immediately before exercise with the patient standing on the treadmill, at the end of each stage of exercise, at the maximally tolerated exercise load, and at the termination of exercise.

[2] = Solubility of ranolazine in aqueous solutions by pH; format: physicochemical
[3] = tested on: patients with chronic stable angina pectoris; assay: Example 4: exercise treadmill test (ETT) at peak and trough, IR regimens; format: in vivo, human; conditions: Peak, all patients, 267 mg tid IR ranolazine .2HCl
Procedure: In this Example, the safety and anti-ischemic effects of high plasma ranolazine levels in a large group of angina patients was evaluated and the duration of any effects during steady-state dosing with bid and tid regimens was assessed. In this Example, patients with chronic stable angina pectoris who were responsive to conventional antianginal drugs were treated with 3 ranolazine .2HCl dosing regimens: 267 mg tid, 400 mg bid and 400 mg tid IR Formulations of Example 1. Exercise testing parameters and ranolazine free base concentrations were determined at peak and trough plasma levels.
The study involved double-blind, placebo-controlled randomized treatment phase with 4 treatments (placebo, ranolazine .2HCl 400 mg bid, ranolazine .2HCl 267 mg tid, and ranolazine .2HCl 400 mg tid), 4 treatment sequences and 5 double-blind treatment periods in an extended period Latin square design on pre-qualified patients who were responsive to known antianginal therapy and had stable exercise times.
Human patients with chronic stable angina pectoris, of at least 3 months' duration, that had responded to conventional antianginal therapy were considered candidates. […]

healthy male volunteers = assay: Example 8: safety and tolerability of SR 1500 and 2000 mg bid; format: in vivo, human; conditions: for subjects too symptomatic on standing to complete BP measurements: usually 2-6 hours post-dose; for reduction in orthostatic systolic BP: statistically significant
Procedure: (§1) The study was performed with ascending doses of sustained release ranolazine dosage forms. Before and at intervals during and after the dosing period, blood samples were drawn for ranolazine assay and blood pressure, heart rate, ECG and symptoms were monitored throughout. Data summaries were reviewed after each phase before proceeding to the next phase of the study.
(§2) Eight subjects, all healthy male volunteers aged between 18 and 40 entered and all completed the study and were available for pharmacokinetic and safety analysis. The subjects were each given doses of the various types of ranolazine free base in the form of sustained release tablets including 500 mg and 750 mg tablets or with matching placebo as necessary (2×750 mg size plus 1×500 mg size) to make unit oral doses of 1500 and 2000 mg.
(§3) In each phase: one dose bid for four days with a single dose on Day 5. On day 5 each volunteer underwent a full pharmacokinetic profile including supine and erect blood pressure (BP) and heart rate, ECG data, adverse events, clinical chemistry and hematology results, urinalysis results.
(§4) These tests were made using two-sided t-tests with estimates of variability from the ANOVA models. Steady state was also assessed by comparing means for C48h, C72h and C96h using a mixed effects ANOVA model and untransformed and log, transformed data. For hemodynamic parameters, Day 1 pre-dose treatment means and Day 5 data were compared across treatments via two-sided t-tests using estimates of variability from mixed effects ANOVA models. Ninety and 95% confidence intervals were calculated for the treatment comparisons. No adjustments were made for multiple comparisons.

[4] = tested on: patients with stable angina pectoris; conditions: cited from earlier work; for increase in total exercise duration (±SEM) compared with baseline: after 4 weeks, 1 hour after medication (peak effect), P=NS vs placebo
[5] = Example 8: Day 5 pharmacokinetics of racemic ranolazine and enantiomers, SR 1500 and 2000 mg bid; format: in vivo, human; conditions: for Tmax / Cmax / AUC: male, human, plasma, oral; for AUC: read-out: AUC96-108h; for differences in the pharmacokinetic parameters of the enantiomers: multiple dosing with the SR formulation
Procedure: This Example evaluated the safety and tolerability of administering racemic ranolazine free base formulations as in Example 2D. The individual and mean concentrations of racemic ranolazine and its enantiomers, (R)-(+)-N-(2,6-dimethylphenyl)-4-[2-hydroxy-3-(2-methoxyphenoxy)-propyl]-1-piperazineacetamide, (S)-(−)-N-(2,6-dimethylphenyl)-4-[2-hydroxy-3-(2-methoxyphenoxy)-propyl]-1-piperazineacetamide in human plasma were also determined.
as §1, §2, §3, §4

[6] = cited from earlier work; for mean peak plasma concentration of ranolazine free base: 1 hour after dose; for mean trough plasma concentration: 8 hours after dose
[7] = Day 5, 1500 mg SR bid (racemic, Example 2D)
[8] = Day 5, 2000 mg SR bid (racemic, Example 2D)
[9] = 1500 mg, Day 5, 1500 mg SR bid (racemic, Example 2D), read-out: Median tmax

## COc1ccccc1OCC(O)CN1CCN(CC(=O)Nc2c(C)cccc2C)CC1 (racemic) [ranolazine, (±)-N-(2,6-dimethylphenyl)-4-[2-hydroxy-3-(2-methoxyphenoxy)-propyl]-1-piperazineacetamide]
[1]; 3 IR dosing regimens
  ECG intervals or complex morphology: no drug-related changes
  blood glucose concentrations, lipid values or liver function tests: no clinically significant changes
[1]; over the plasma concentrations achieved in the study
  tolerability: well tolerated
[1]; peak ranolazine plasma concentrations
  blood pressure or heart rate: not associated with changes in blood pressure or heart rate
[1]; peak ranolazine plasma concentrations, any dosing regimen
  double product versus placebo: no statistically significant differences
[1]; trough ranolazine plasma concentrations, per-protocol analysis, 3 dosing regimens
  standing or maximum exercise double product versus placebo: no statistically significant differences
[2]; Solution pH 4.81
  USP Solubility Class: Freely soluble
[2]; Solution pH 4.89
  USP Solubility Class: Soluble
[2]; Solution pH 4.90
  USP Solubility Class: Soluble
[2]; Solution pH 5.04
  USP Solubility Class: Soluble
[2]; Solution pH 5.35
  USP Solubility Class: Sparingly soluble
[2]; Solution pH 5.82
  USP Solubility Class: Slightly soluble
[2]; Solution pH 6.46
  USP Solubility Class: Slightly soluble
[2]; Solution pH 6.73
  USP Solubility Class: Very slightly soluble
[2]; Solution pH 7.08
  USP Solubility Class: Very slightly soluble
[2]; Solution pH 7.59 (unbuffered water)
  USP Solubility Class: Very slightly soluble
[2]; Solution pH 7.73
  USP Solubility Class: Very slightly soluble
[2]; Solution pH 12.66
  USP Solubility Class: Very slightly soluble
[3]
  Mean time to onset angina: 9.40 min
Healthy male volunteers; 1500 mg SR bid
  subjects too symptomatic on standing to complete BP measurements: 3 of 8
Healthy male volunteers; 2000 mg SR bid
  subjects too symptomatic on standing to complete BP measurements: 2 of 8
Healthy male volunteers; SR 1500 and 2000 mg bid versus placebo
  adverse events: headache, dizziness and blocked nose seemed more common on ranolazine
Healthy male volunteers; day 5, 1500 mg SR bid, 4 hours post-dose
  reduction in orthostatic systolic BP: −9.8 mm Hg
Healthy male volunteers; day 5, 2000 mg SR bid, 6 hours post-dose
  reduction in orthostatic systolic BP: −8.4 mmHg
[4]; 30 mg tid
  increase in total exercise duration (±SEM) compared with baseline: 0.3 ± 0.2 min
[4]; 60 mg tid
  increase in total exercise duration (±SEM) compared with baseline: 0.6 ± 0.2 min
[4]; 120 mg tid
  increase in total exercise duration (±SEM) compared with baseline: 0.5 ± 0.2 min
[5]; [7]
  Cave: 4126 ± 1995 ng/mL
  Cmin: 2932 ± 1918 ng/mL
  Degree of fluctuation: 0.664
  Cmax: 5280 ± 2430 ng/mL
  AUC: 49500 ng·h/mL
[5]; [8]
  Cave: 5705 ± 2153 ng/mL
  Cmin: 4149 ± 2228 ng/mL
  Degree of fluctuation: 0.591
  Cmax: 7280 ± 2700 ng/mL
  AUC: 68500 ng·h/mL
[5]; SR bid dosing
  Steady-state plasma levels of ranolazine free base attained by: ≤ 4 days
[5]; [9]
  Tmax: 4 h
[5]; 2000 mg, Day 5, 2000 mg SR bid (racemic, Example 2D), read-out: Median tmax
  Tmax: 4 h
[5]; 2000 mg, within the dose interval, SR 1500 and 2000 mg bid, read-out: tmax values post-dose
  Tmax: 1 to 6 h

## COc1ccccc1OC[C@H](O)CN1CCN(CC(=O)Nc2c(C)cccc2C)CC1 [(+)R ranolazine, (R)-(+)-N-(2,6-dimethylphenyl)-4-[2-hydroxy-3-(2-methoxyphenoxy)-propyl]-1-piperazineacetamide]
[5]; [7]
  Cave: 2144 ± 1115 ng/mL
  Cmin: 1436 ± 1046 ng/mL
  Degree of fluctuation: 0.833
  Cmax: 2910 ± 1310 ng/mL
  AUC: 25700 ng·h/mL
[5]; [9]
  Tmax: 4 h
[5]
  differences in the pharmacokinetic parameters of the enantiomers: no differences

## COc1ccccc1OCC(O)CN1CCN(CC(=O)Nc2c(C)cccc2C)CC1 (centres unmarked) [ranolazine .2HCl]
[4]; 30, 60 and 120 mg tid
  therapy compared with placebo: not superior to placebo
[6]; 30 mg tid IR
  mean peak plasma concentration of ranolazine free base: 94 ng/mL
  mean trough plasma concentration: 18 ng/mL
[6]; 60 mg tid IR
  mean peak plasma concentration of ranolazine free base: 219 ng/mL
  mean trough plasma concentration: 37 ng/mL
[6]; 120 mg tid IR
  mean peak plasma concentration of ranolazine free base: 510 ng/mL
  mean trough plasma concentration: 90 ng/mL

## COc1ccccc1OC[C@@H](O)CN1CCN(CC(=O)Nc2c(C)cccc2C)CC1 [(−)S ranolazine, (S)-(−)-N-(2,6-dimethylphenyl)-4-[2-hydroxy-3-(2-methoxyphenoxy)-propyl]-1-piperazineacetamide]
[5]; [7]
  Cave: 2201 ± 1237 ng/mL
  Cmin: 1514 ± 1201 ng/mL
  Degree of fluctuation: 0.824
  Cmax: 2940 ± 1430 ng/mL
  AUC: 26400 ng·h/mL
[5]; [9]
  Tmax: 4 h
[5]
  differences in the pharmacokinetic parameters of the enantiomers: no differences
